Read-outs that look alike come from different tables or passages of the source.
Target: MCH receptor (Homo sapiens, UniProt Q99705)
Assay: High throughput functional screening FLIPR/FDSS6000: inhibition of MCH-evoked intracellular Ca2+ changes
Type: cell-based
Settings: for class: class by percent of control at 10^-7 M or IC50; for IC50: read-out: class
In short: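 Antagonism is measured as inhibition of the intracellular calcium rise triggered by 50 nM MCH in cells bearing a constitutively active, non-endogenous form of the receptor. Cells are dye-loaded with Fluo4-AM and exposed to compound for 3 min at 37° C before agonist addition.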

SMILES | class | other results
CN(C)c1nc(N[C@H]2CC[C@@H](NC(=S)Nc3c(Cl)c(Cl)cc(Cl)c3Cl)CC2)nc2ccccc12 [compound 291] | 3 (Class 3: The value of percent of control at 10^−7 M was more than 60% or the value of IC50 was more than 200 nM.) | 
COc1cccc(Oc2ncccc2C(=O)N[C@H]2CC[C@@H](Nc3nc(N(C)C)c4ccccc4n3)CC2)c1OC [Example 1040, 2-(2,3-dimethoxyphenoxy)-N-(cis-4-{[4-(dimethylamino)quinazolin-2-yl]-amino}cyclohexyl)nicotinamide] |  | IC50 (class by percent of control at 10^−7 M or by IC50): < 50 nM
CN(C)c1nc(N[C@H]2CC[C@@H](CNC(=S)Nc3ccc(F)c(Cl)c3)CC2)nc2ccccc12 [compound 804] |  | IC50 (class by percent of control at 10^-7 M or by IC50): > 200 nM
CN(C)c1nc(N[C@H]2CC[C@@H](CNC(=S)Nc3ccc(Cl)c(Cl)c3)CC2)nc2ccccc12 [compound 594] | 3 (Class 3: The value of percent of control at 10^−7 M was more than 60% or the value of IC50 was more than 200 nM.) | 

Reference: US20070010671A1, “Novel quinazoline derivatives and methods of treatment related to the use thereof” (priority 2003, published 2007)
